Experimental data: patent publication US20050014152A1, “Drug transporter and use thereof” (priority 2001, published 2005)
Where a name gives a salt, the structure may show the parent alone.

Tests used:
[1] = target: T1, ABCA8 (Homo sapiens, UniProt O94911); assay: uptake of various isotope-labeled compounds into oocytes; format: cell-based
T1 construct: expressed in transfected cells; host or cells: Xenopus oocytes (stage V) microinjected with capped cRNA
Description: (§1) The cultured oocytes (n=10 to 20) were mixed with 2 to 3 ml of a medium and an isotope-labeled compound, and the mixture was then placed in a small incubator. Small amounts of the cells were serially sampled. Each oocyte was washed with a fresh MBS 3 times, and it was then dissolved in a 10% SDS solution at room temperature for 30 minutes. As such an isotope-labeled compound, ^14C-estradiol-β-glucuronide that is a model probe for MRP (multidrug resistance associated protein), a member of an ABC transporter family, was used. Subsequently, a scintillation cocktail (ACS2, manufactured by Amersham) was added thereto, and then, a radioactivity taken into the oocyte was measured with a liquid scintillation counter (LSC-3500, manufactured by Aloka).
Subsequently, the uptake of various isotope-labeled compounds into cells was measured. Measurement was carried out in the same manner as in Example 1 with the exception that the following compounds were used. • LTC4 (leukotriene C4): a substrate for MRP (an additive amount: 20 μM) • Taurocholic acid: a substrate for OAT (an additive amount: 100 μM) • TEA (tetraethylammonium): a substrate for OCT (an additive amount: 10 nM) • Digoxin: a substrate for MDR (an additive amount: 100 nM) • Doxorubicin: a substrate for MDR (an additive amount: 100 μg/ml) • PAH (para-aminohippuric acid): a substrate for MRP and OAT (an additive amount: 1 mM)

[2] = target: T1, ABCA8; assay: inhibition test of the uptake of 14C-estradiol-β-glucuronide into oocytes by various compounds; format: cell-based; conditions: for uptake of 14C-estradiol-β-glucuronide decreased to: inhibitor additive amount 10 μM
Description: An inhibition test was carried out on the protein encoded by a DNA comprising the nucleotide sequence represented by SEQ ID NO: 2. In the test, in the above described determination of the uptake of ^14C-estradiol-β-glucuronide, various types of compounds were previously added to a reaction medium, so as to examine whether or not the uptake of ^14C-estradiol-β-glucuronide was inhibited by the compounds.

[3] = target: T1, ABCA8; assay: uptake of 3H-indoxyl sulfate into oocytes and its inhibition by probenecid; format: cell-based
Description: as §1
(§2) The same procedure was carried out as in Example 1 with the exception that ^3H-labeled indoxyl sulfate, one of the urinary toxins, was isotope-labeled with ^3H was used as a compound in a concentration of 2 μM. At the same time, a system to which probenecid was added in a concentration of 1 mM, and a system to which water was added instead of cRNA, were also subjected to the same test.

[4] = target: T1, ABCA8; assay: ATP dependency of the uptake of 14C-estradiol-β-glucuronide into oocytes; format: cell-based; conditions: ATP added, up to 5 mM
Description: A protein encoded by a DNA comprising the nucleotide sequence represented by SEQ ID NO: 2has an ATP-binding cassette. Thus, a test was made to see ATP dependency of the uptake of ^14C-estradiol-β-glucuronide. In the test, ATP was added in the above determination of the uptake of ^14C-estradiol-[…], and the same operation was then carried out to determine the uptake of ^14C-estradiol-β-glucuronide.

[5] = target: T1, ABCA8; assay: uptake of 14C-estradiol-β-glucuronide into Xenopus oocytes injected with cRNA of the drug transporter; format: cell-based
Description: A mature female Xenopus purchased from Hamamatsu Animal was bred under normal conditions. Thereafter, stage V oocytes were selected therefrom, and the cells were incubated in a modified Barth's solution (MBS) containing 88 mM NaCl, 1 mM KCl, 2.4 mM NaHCO3, 15 mM Tris-Cl, 0.3 mM CaNO3, 0.82 mM MgSO4, 0.41 mM CaCl2, 10 μg/ml penicillin and 10 μg/ml streptomycin. Thereafter, cRNA was prepared by a known method using a DNA having the nucleotide sequence represented by SEQ ID NO: 1, and an aqueous solution containing the obtained cRNA was injected into the mature Xenopus oocytes by microinjection. For such microinjection, cRNA whose 5′-terminus was capped or 50 nl of water was injected into the oocytes in vitro, using an automatic injector (IM200J, Narishige, Japan). The thus injected oocytes were cultured at 17° C. for 3 days in MBS, while exchanging the medium with a new one every day. 3 days after the culture, the oocytes expressed a drug transporter.
The used cRNA was obtained by […] of cDNA from Kazusa DNA Research Institute, which has been cloned as one of full-length cDNAs obtained from human brain and has been deposited with NCBI (National Center for Biotechnology Information, USA) under accession No. AB020629.
as §1
In this case, the concentration of ^14C-estradiol-β-glucuronide in the medium was 37 nM. […]

[6] = substrate: O=S(=O)(O)Oc1c[nH]c2ccccc12; assay: uptake of 3H-indoxyl sulfate into oocytes and its inhibition by probenecid; format: cell-based, human; conditions: other: cRNA-injected oocytes
Description: as §1, §2

Q: For `CCCCC/C=C\C\C=C/C=C/C=C/[C@@H](SC[C@H](NC(=O)CC[C@H](N)C(=O)O)C(=O)NCC(=O)O)[C@@H](O)CCCC(=O)O` [LTC-4, leukotriene C4], which “uptake of isotope-labeled compound into oocytes” value ([1]; additive amount 20 μM) is on record?
A: taken into oocytes

Q: For `CN(C)C(=O)CCSC(SCCC(=O)O)c1cccc(/C=C/c2ccc3ccc(Cl)cc3n2)c1` (centres unmarked) [MK-571], which “uptake of 14C-estradiol-β-glucuronide decreased to” value [2] is on record?
A: approximately 30%

Q: Which “uptake of 14C-estradiol-β-glucuronide decreased to” value [2] does the source give for `O=C(C(c1ccccc1)c1ccccc1)N1CCN(CC(O)COc2cccc3ncccc23)CC1` (centres unmarked) [MS-209] here?
A: approximately 30%

Q: With `Nc1ccc(C(=O)NCC(=O)O)cc1` [PAH, para-aminohippuric acid] as the molecule, how does the “uptake of isotope-labeled compound into oocytes” value ([1]; additive amount 1 mM) read?
A: taken into oocytes

Q: How did the “uptake of isotope-labeled compound into oocytes” value ([1]; additive amount 10 nM) turn out when `CC[N+](CC)(CC)CC` [TEA, tetraethylammonium] was run?
A: does not have a function to transport

Q: Which results are given for `O=S(=O)(O)Oc1c[nH]c2ccccc12` [^3H-indoxyl sulfate, indoxyl sulfate]?
A: Vmax of uptake ([3]; cRNA-injected oocytes): 5.5 pmol/hr/egg; uptake of 3H-indoxyl sulfate into oocytes, time course ([3]; cRNA-injected oocytes, 2 μM): linearly increased with time

Q: How did the “inhibitory effect on uptake of 14C-estradiol-β-glucuronide” value (shortened to “inhibitory effect on uptake”) ([2]; additive amount 1 mM) turn out when `CN/C(=N/CCSCc1nc[nH]c1C)NC#N` [cimetidine, Cimetidine] was run?
A: no inhibitory effect

Q: Which results are given for `C[C@H]1O[C@@H](O[C@H]2[C@@H](O)C[C@H](O[C@H]3[C@@H](O)C[C@H](O[C@H]4CC[C@@]5(C)[C@H](CC[C@@H]6[C@@H]5C[C@@H](O)[C@]5(C)[C@@H](C7=CC(=O)OC7)CC[C@]65O)C4)O[C@@H]3C)O[C@@H]2C)C[C@H](O)[C@@H]1O` [digoxin, Digoxin]?
A: uptake of isotope-labeled compound into oocytes ([1]; additive amount 100 nM): excreted therefrom (or its original uptake was inhibited); inhibitory effect on uptake of 14C-estradiol-β-glucuronide ([2]; additive amount 0.25 mM): small extent of inhibitory effect

Q: With `COc1cccc2c1C(=O)c1c(O)c3c(c(O)c1C2=O)C[C@@](O)(C(=O)CO)C[C@@H]3O[C@H]1C[C@H](N)[C@H](O)[C@H](C)O1` [doxorubicin, Doxorubicin] as the molecule, how does the “uptake of isotope-labeled compound into oocytes” value ([1]; additive amount 100 μg/ml) read?
A: does not have a function to transport

Q: For `C[C@@H]1Cc2c(Cl)cc(C(=O)N[C@@H](Cc3ccccc3)C(=O)O)c(O)c2C(=O)O1` [ochratoxin A, Ochratoxin A], which “inhibitory effect on uptake” value ([2]; additive amount 50 μM) is on record?
A: inhibitory effect

Q: With `CCCN(CCC)S(=O)(=O)c1ccc(C(=O)O)cc1` [probenecid, Probenecid] as the molecule, how does the “effect on uptake of 3H-indoxyl sulfate into the cells” value ([3]; probenecid 1 mM, 3H-indoxyl sulfate 2 μM) read?
A: decreased

Q: What about the “inhibitory effect on uptake” value ([2]; additive amount 1 mM) of the same molecule?
A: small extent of inhibitory effect

Q: How did the “uptake of isotope-labeled compound into oocytes” value ([1]; additive amount 100 μM) turn out when `C[C@H](CCC(=O)NCCS(=O)(=O)O)[C@H]1CC[C@H]2[C@@H]3[C@H](O)C[C@@H]4C[C@H](O)CC[C@]4(C)[C@H]3C[C@H](O)[C@]12C` [taurocholic acid, Taurocholic acid] was run?
A: taken into oocytes

Q: How did the “influence of ATP concentration on uptake into the cells” value [4] turn out when ^14C-estradiol-β-glucuronide was run?
A: increased with the increase of ATP concentration

Q: And the “intake of 14C-estradiol-β-glucuronide into the cells” value ([5]; 37 nM in the medium, about 60 minutes)?
A: 138±5.5 fmol/hr/egg

Q: What about the Km ([5]; Michaelis-Menten) of the same molecule?
A: 30.4 µM

Q: And the Vmax of uptake ([5]; Michaelis-Menten)?
A: 8.37 pmol/hr/egg

B1: ABCA8 (Homo sapiens) (protein)
chain: MRKRKISVCQQTWALLCKNFLKKWRMKRESLMEWLNSLLLLLCLYIYPHSHQVNDFSSLLTMDLGRVDTFNESRFSVVYTPVTNTTQQIMNKVASTPFLAGKEVLGLPDEESIKEFTANYPEEIVRVTFTNTYSYHLKFLLGHGMPAKKEHKDHTAHCYETNEDVYCEVSVFWKEGFVALQAAINAAIIEITTNHSVMEELMSVTGKNMKMHSFIGQSGVITDLYLFSCIISFSSFIYYASVNVTRERKRMKALMTMMGLRDSAFWLSWGLLYAGFIFIMALFLALVIRSTQFIILSGFMVVFSLFLLYGLSLVALAFLMSILVKKSFLTGLVVFLLTVFWGCLGFTSLYRHLPASLEWILSLLSPFAFMLGMAQLLHLDYDLNSNAFPHPSDGSNLIVATNFMLAFDTCLYLALAIYFEKILPNEYGHRRPPLFFLKSSFWSQTQKTDHVALEDEMDADPSFHDSFEQAPPEFQGKEAIRIRNVTKEYKGKPDKIEALKDLVFDIYEGQITAILGHSGAGKSTLLNILSGLSVPTKGSVTIYNNKLSEMADLENLSKLTGVCPQSNVQFDFLTVRENLRLFAKIKGILPQEVDKEIFLLDEPTAGLDPFSRHQVWNLLKERKTDRVILFSTQFMDEADILADRKVFLSQGKLKCAGSSLFLKKKWGIGYHLSLQLNEICVEENITSLVKQHIPDAKLSAKSEGKLIYTLPLERTNKFPELYKDLDSYPDLGIENYGVSMTTLNEVFLKLEGKSTINESDIAILGEVQAEKADDTERLVEMEQVLSSLNKMRKTIGGVALWRQQICAIARVRLLKLKHERKALLALLLILMAGFCPLLVEYTMVKIYQNSYTWELSPHLYFLAPGQQPHDPLTQLLIINKTGASIDDFIQSVEHQNIALEVDAFGTRNGTDDPSYNGAITVCCNEKNYSFSLACNAKRLNCFPVLMDIVSNGLLGMVKPSVHIRTERSTFLENGQDNPIGFLAYIMFWLVLTSSCPPYIAMSSIDDYKNRARSQLRISGLSPSAYWFGQALVDVSLYFLVFVFIYLMSYISNFEDMLLTIIHIIQIPCAVGYSFSLIFMTYVISFIFRKGRKNSGIWSFCFYVVTVFSVAGFAFSIFESDIPFIFTFLIPPATMIGCLFLSSHLLFSSLFSEERMDVQPFLVFLIPFLHFIIFLFTLRCLEWKFGKKSMRKDPFFRISPRSSDVCQNPEEPEGEDEDVQMERVRTANALNSTNFDEKPVIIASCLRKEYAGKRKGCFSKRKNKIATRNVSFCVRKGEVLGLLGHNGAGKSTSIKVITGDTKPTAGQVLLKGSGGGDALEFLGYCPQENALWPNLTVRQHLEVYAAVKGLRKGDAEVAITRLVDALKLQDQLKSPVKTLSEGIKRKLCFVLSILGNPSVVLLDEPSTGMDPEGQQQMWQAIRATFRNTERGALLTTHYMAEAEAVCDRVAIMVSGRLRCIGSIQHLKSKFGKDYLLEMKVKNLAQVEPLHAEILRLFPQAARQERYSSLMVYKLPVEDVQPLAQAFFKLEKVKQSFDLEEYSLSQSTLEQVFLELSKEQELGDFEEDFDPSVKWKLLPQEEP
notes: expressed in transfected cells; host or cells: Xenopus oocytes (stage V) microinjected with capped cRNA
Q: B1 was tested. Which Km [6] did it give?
A: 25.5 µM
